# Values of other authors as cited in patent US9555150B2, “Absorbent articles comprising an organic zinc salt and an anti-bacterial agent or alkali metal chloride or alkaline earth metal chloride” (SCA HYGIENE PRODUCTS AB, priority 2006, dated 2017).
# Settings: measured in water at 25° C
row,SMILES,pK
1,"CC(=O)O [Acetic acid, acetic acid]",4.75
2,O=C(O)c1ccccc1 [benzoic acid],4.19
3,C/C=C/C=C/C(=O)O [sorbic acid],4.76
